Assay results reported in BindingDB's records for patent US10538523 (PFIZER LIMITED, 2020).

Target: T1, Gamma-aminobutyric acid receptor subunit alpha-2 (Homo sapiens, UniProt P18507+P47869+P47870)
T1 sequence (P47869 whole entry): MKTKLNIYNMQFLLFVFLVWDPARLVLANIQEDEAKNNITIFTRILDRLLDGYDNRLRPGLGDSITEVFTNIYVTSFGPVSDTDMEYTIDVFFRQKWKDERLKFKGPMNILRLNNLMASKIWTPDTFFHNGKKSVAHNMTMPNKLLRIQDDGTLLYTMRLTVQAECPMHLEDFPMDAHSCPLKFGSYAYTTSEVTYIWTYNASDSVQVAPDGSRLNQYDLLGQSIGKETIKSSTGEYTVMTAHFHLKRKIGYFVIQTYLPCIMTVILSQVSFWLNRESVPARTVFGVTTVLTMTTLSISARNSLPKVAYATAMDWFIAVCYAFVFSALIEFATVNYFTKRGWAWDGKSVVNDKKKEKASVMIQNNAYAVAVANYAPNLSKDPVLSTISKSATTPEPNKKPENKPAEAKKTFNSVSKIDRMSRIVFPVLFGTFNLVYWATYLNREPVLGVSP
Assay: Binding Assay
Procedure: 100 ul of radioligand and 100 ul of membrane in 50 mM Tris-HCl and 0.05% F127 with 1 ul of test compound was incubated for 2 hours to allow the reaction to achieve equilibrium, and then harvested onto filter plates, dried and counted on a TopCount NXT. The data was analysed, and the Ki values were presented as the geometric mean of at least two replicates.

Ki: 11.8 nM
SMILES: CCn1ncc2c(-c3ccc(F)c(-c4cc5c(cc4OC)C(=O)N(C)C5)c3)cnnc21 [US10538523, Example 3]
